In article PMC9884089 (Journal of Medicinal Chemistry, 2023):
pIC50: −log10 of the molar value. Read-outs that look alike come from different tables or passages of the source.

Experiments:
[1] = target: T1, TNKS2 (Homo sapiens, UniProt Q9H2K2); assay: biochemical
T1 sequence (Q9H2K2 1-1166): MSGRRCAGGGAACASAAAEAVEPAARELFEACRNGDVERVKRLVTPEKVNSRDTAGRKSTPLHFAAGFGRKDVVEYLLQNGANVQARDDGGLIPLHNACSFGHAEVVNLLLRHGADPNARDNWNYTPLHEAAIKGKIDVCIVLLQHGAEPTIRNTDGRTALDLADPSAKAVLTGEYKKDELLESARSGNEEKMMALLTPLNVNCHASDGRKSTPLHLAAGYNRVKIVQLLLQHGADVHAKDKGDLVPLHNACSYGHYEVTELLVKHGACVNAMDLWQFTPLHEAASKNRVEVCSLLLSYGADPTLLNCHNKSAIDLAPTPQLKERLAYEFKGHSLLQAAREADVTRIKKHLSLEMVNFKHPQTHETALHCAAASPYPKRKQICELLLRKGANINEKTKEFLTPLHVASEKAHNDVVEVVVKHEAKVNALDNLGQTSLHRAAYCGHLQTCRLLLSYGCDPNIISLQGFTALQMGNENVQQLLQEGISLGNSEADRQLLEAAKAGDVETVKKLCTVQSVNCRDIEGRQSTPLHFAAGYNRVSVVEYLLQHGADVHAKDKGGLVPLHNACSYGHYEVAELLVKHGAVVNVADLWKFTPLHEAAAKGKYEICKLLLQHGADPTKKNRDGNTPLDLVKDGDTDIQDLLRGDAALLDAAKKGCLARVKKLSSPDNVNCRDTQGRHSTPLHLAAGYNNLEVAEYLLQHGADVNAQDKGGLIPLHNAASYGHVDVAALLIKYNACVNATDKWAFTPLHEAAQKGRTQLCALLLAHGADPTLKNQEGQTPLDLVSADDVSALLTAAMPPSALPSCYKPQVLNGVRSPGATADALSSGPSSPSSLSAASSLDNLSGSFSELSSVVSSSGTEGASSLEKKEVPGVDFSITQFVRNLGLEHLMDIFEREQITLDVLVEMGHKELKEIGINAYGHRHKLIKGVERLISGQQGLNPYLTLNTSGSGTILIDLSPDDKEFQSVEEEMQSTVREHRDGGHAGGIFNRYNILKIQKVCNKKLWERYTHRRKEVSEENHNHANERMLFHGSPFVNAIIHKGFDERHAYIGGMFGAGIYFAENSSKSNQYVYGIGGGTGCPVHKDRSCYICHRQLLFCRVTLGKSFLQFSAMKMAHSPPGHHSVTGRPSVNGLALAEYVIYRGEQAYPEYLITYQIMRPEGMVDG
Procedure: The proteins used in Tables 1–3 were produced as described earlier. Dockerin constructs to allow enhanced activity assays for mono-ARTs (Table 4) were produced in Escherichia coli with an N-terminal maltose binding protein (MBP) and a C-terminal dockerin domain from Hungateiclostridium thermocellum Cel48s as described recently.[47]
Inhibition experiments were performed using a homogenous assay measuring NAD+ consumption.[80]−[82] Reactions were carried out in quadruplicate, and IC50 curves were fitted using sigmoidal dose response curve (four variables) in GraphPad Prism version 8.02. […] Assay conditions for PARP2, TNKS2, PARP10, and PARP15 (Tables 1–3) were recently reported.[44] The conditions for the proximity-enhanced mono-ART assays (Table 4) were also reported recently.[47] PARP6 (400 nM) inhibition was measured using the standard buffer (50 mM sodium phosphate pH 7.0) for the enhanced activity assay using 500 nM NAD^+ and 18 h incubation in r.t..

[2] = target: T2, PARP2 (Homo sapiens, UniProt Q9UGN5); assay: biochemical; format: biochemical
T2 construct: made in house

[3] = target: T3, PARP15 (Homo sapiens, UniProt Q460N3); assay: biochemical; format: biochemical; settings: standard assay (Tables 1-3); * value limited by the protein concentration used; > less than 50% inhibition, ≫ no inhibition at the concentration; read-out: PARP15 IC50
T3 construct: made in house
T3 sequence (Q460N3 1-678): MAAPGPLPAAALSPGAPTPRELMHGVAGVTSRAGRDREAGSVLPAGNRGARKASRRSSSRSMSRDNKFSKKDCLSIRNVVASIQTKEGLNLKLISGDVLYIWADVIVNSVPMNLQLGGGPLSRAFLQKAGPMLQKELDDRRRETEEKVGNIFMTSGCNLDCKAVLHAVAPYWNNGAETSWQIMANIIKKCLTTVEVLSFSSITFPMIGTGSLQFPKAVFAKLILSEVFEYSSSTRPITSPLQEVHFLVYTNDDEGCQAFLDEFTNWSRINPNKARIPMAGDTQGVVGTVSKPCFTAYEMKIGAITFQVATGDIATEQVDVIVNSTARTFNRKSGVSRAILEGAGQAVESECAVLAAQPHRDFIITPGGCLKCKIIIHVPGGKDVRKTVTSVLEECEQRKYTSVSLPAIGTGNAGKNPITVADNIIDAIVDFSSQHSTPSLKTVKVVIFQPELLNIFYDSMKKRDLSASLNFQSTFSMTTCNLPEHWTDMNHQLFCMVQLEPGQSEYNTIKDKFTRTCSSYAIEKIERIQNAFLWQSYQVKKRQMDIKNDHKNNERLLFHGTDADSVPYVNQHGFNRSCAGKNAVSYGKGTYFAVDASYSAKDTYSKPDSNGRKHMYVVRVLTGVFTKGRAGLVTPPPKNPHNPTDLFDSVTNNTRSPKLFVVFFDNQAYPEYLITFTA

[4] = PAMPA, blood brain barrier (BBB) permeability; format: in vitro ADME; settings: brain polar lipid, pH 7.4, 5 h
Procedure: Each “donor solution” was prepared from a solution of the appropriate compound (DMSO, 1 mM) diluted with phosphate buffer (pH 7.4, 0.025 M) up to a final concentration of 500 μM. […] Donor solution (150 μL) was added to each well of the filter plate and to each well of the acceptor plate was added 300 μL of solution (50% DMSO in phosphate buffer). The sandwich plate was assembled and incubated for 5 h at r.t. After the incubation time, the plates were separated, and the samples were taken from both the donor and acceptor wells, and the amount of compound was measured by UV/LC–MS. All compounds were tested in three independent experiments. […] Drug concentration is estimated by using the peak area integration. Membrane retentions (%) were calculated according to the following equation [drawing 2] where r is the ratio between drug concentration in the acceptor and equilibrium concentration and D, A, and Eq represent drug concentration in the donor, acceptor, and equilibrium solution, respectively.

[5] = read-out: TNKS2 IC50, > = less than 50% inhibition at highest concentration
[6] = > = less than 50% inhibition at highest concentration, ≫ = no inhibition, read-out: PARP2 IC50

T2 sequence (Q9UGN5 whole entry): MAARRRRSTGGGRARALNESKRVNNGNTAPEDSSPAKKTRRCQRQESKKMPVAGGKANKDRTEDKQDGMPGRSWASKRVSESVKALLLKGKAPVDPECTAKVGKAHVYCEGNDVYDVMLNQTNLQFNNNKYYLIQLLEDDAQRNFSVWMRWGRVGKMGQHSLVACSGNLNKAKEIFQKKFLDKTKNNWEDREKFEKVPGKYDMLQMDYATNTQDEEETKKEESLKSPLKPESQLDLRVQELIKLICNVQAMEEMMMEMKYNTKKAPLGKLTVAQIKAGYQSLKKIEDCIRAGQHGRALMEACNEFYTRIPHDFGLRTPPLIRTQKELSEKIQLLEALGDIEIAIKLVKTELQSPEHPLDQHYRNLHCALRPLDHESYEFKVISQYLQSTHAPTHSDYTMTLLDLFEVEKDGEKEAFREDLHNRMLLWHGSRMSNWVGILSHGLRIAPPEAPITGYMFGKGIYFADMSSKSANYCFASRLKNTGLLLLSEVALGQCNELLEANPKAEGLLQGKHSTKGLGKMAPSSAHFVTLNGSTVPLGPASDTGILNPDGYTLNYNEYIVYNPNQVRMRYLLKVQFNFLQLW

Compound | pIC50 [1, 5] | pIC50 [2, 6] | also measured
Cc1ccc2c(c1)sc1nncn12 [Compound 1] | 5.28 | 5.40 | –
Cc1ccc2sc3nncn3c2c1 [Compound 3, 6-Methyl[1,2,4]triazolo[3,4-b][1,3]benzothiazole] | 6.02 | 5.82 | TNKS2 pIC50 ± SEM ([1]; n = 3): 6.02 ± 0.13
Cc1cccc2c1sc1nncn12 [Compound 4, 8-Methyl[1,2,4]triazolo[3,4-b][1,3]benzothiazole] | 5.42 | 5.08 | –
CCc1ccc2c(c1)sc1nncn12 [Compound 5, 7-Ethyl[1,2,4]triazolo[3,4-b][1,3]benzothiazole] | 5.28 | 5.41 | –
Clc1ccc2c(c1)sc1nncn12 [Compound 7] | 5.00 | 5.62 | –
Cc1cc(C)c2c(c1)sc1nncn12 [Compound 8] | 5.92 | 5.89 | –
Cc1ccc(F)c2c1sc1nncn12 [Compound 9, 5-Fluoro-8-methyl[1,2,4]triazolo[3,4-b][1,3]benzothiazole] | 5.27 | – | –
COc1ccc2sc3nncn3c2c1 [Compound 10, 6-Methoxy[1,2,4]triazolo[3,4-b][1,3]benzothiazole] | 6.00 | 5.33 | –
COc1ccc2c(c1)sc1nncn12 [Compound 11] | 5.26 | 5.06 | –
COc1cccc2c1sc1nncn12 [Compound 12, 8-Methoxy[1,2,4]triazolo[3,4-b][1,3]benzothiazole] | 4.62 | < 5.00 | –
COc1cccc2sc3nncn3c12 [Compound 13, 5-Methoxy[1,2,4]triazolo[3,4-b][1,3]benzothiazole] | 6.00 | – | –
Cc1ccc2c(c1)sc1nnc(/N=C\c3ccc(Cl)cc3)n12 [Compound 24, N-[(1Z)-(4-Chlorophenyl)methylene]-7-methyl[1,2,4]triazolo[3,4-b][1,3]benzothiazol-3-amine] | – | – | pIC50 [1]: < 4.00; pIC50 ([2]; read-out: PARP2 IC50): 5.54
O=C(c1cc(Cc2n[nH]c(=O)c3ccccc23)ccc1F)N1CCN(C(=O)C2CC2)CC1 [olaparib, reference compound] | – | – | Papp at 5 h, 500 μM [4]: 0.016 ×10⁻⁶ cm/s

Now from value to molecule, other results behind:

pIC50 [1, 5] | pIC50 [2, 6] | Compound | also measured
5.40 | 5.04 | COc1ccc(OC)c2c1sc1nncn12 [Compound 14, 5,8-Dimethoxy[1,2,4]triazolo[3,4-b][1,3]benzothiazole] | –
5.12 | 4.70 | COc1cc(OC)c2sc3nncn3c2c1 [Compound 15, 6,8-Dimethoxy[1,2,4]triazolo[3,4-b][1,3]benzothiazole] | –
4.77 | 4.54 | Oc1cccc2c1sc1nncn12 [Compound 17, [1,2,4]Triazolo[3,4-b][1,3]benzothiazol-8-ol] | –
< 4.00 | < 4.00 | Cc1ccc2c(c1)sc1nnc(O)n12 [Compound 19] | pIC50 [3]: < 5.00
< 4.00 | 4.92 | CSc1nnc2sc3cc(C)ccc3n12 [Compound 22, 7-Methyl-3-(methylthio)[1,2,4]triazolo[3,4-b][1,3]benzothiazole] | –
< 4.00 | < 4.00 | Cc1ccc2c(c1)sc1nnc(SCc3ccc(Cl)cc3)n12 [Compound 23, 3-[(4-Chlorobenzyl)thio]-7-methyl[1,2,4]triazolo[3,4-b][1,3]benzothiazole] | –
< 4.00 | 4.15 | Cc1ccc2c(c1)sc1nnc(NCc3ccc(Cl)cc3)n12 [Compound 25, N-(4-Chlorobenzyl)-7-methyl[1,2,4]triazolo[3,4-b][1,3]benzothiazol-3-amine] | –
4.18 | 4.72 | COc1ccc(OC)c2c1sc1nnc(S)n12 [Compound 26, 5,8-Dimethoxy[1,2,4]triazolo[3,4-b][1,3]benzothiazole-3(2H)-thione] | –
< 4.00 | – | COc1ccc(OC)c2c1sc1nnc(NC(=O)C(C)(C)C)n12 [Compound 30, N-(5,8-Dimethoxy[1,2,4]triazolo[3,4-b][1,3]benzothiazol-3-yl)-2,2-dimethylpropanamide] | pIC50 [2]: 4.28
< 4.00 | 4.01 | COc1ccc(OC)c2c1sc1nnc(NC(C)=O)n12 [Compound 31, N-(5,8-Dimethoxy[1,2,4]triazolo[3,4-b][1,3]benzothiazol-3-yl)acetamide] | –
